Values of other authors, collected in US11547680B2, “Benzalkonium-embedded mesostructured silica compositions and uses of same” (RUTGERS, THE STATE UNIVERSITY OF NEW JERSEY, priority 2018, dated 2023).

Conditions: aqueous solution

benzalkonium chloride [BAC]
critical micelle concentration (CMC): ca. 0.5 mM
